Laboratory results from patent publication US10588950B2, “Compositions and methods for counteracting Factor Xa inhibition” (Pfizer Inc., priority 2013, dated 2020).

Assays:
[1] = tested on: whole blood clot formation; assay: Whole blood rotational thromboelastometry (ROTEM); type: cell-based, human
Description: Whole blood thromboelastometry was used to assess the ability of the FXa^I16L variant to reverse the effects of the direct FXa inhibitors in whole blood. In this system, blood is drawn from healthy volunteers. The first 2 mL of blood were discarded and the subsequent 5 mL of blood was collected into a vacutainer (BID, Franklin Lakes, N.J.). Corn trypsin inhibitor and sodium citrate were in the collection tube, prior to collection of the blood sample, to achieve a final concentration of 0.105 M citrate and 25 μg/mL corn trypsin inhibitor (Haematologic Technologies, Burlington, Vt.) in the blood. Two sets of reactions were analyzed for each donor. The initial reaction initiated 5 minutes post blood collection. The second reaction initiated 1 hour post initiation of first reaction (1 hour 5 minutes after collection).
Blood was analyzed using Thromboelastometry ROTEM® delta (Tem International GmbH, Munich, Germany). For the reaction: (1) 6 μL of vehicle, protein, and/or inhibitor were added to the empty cup, (2) 20 μl of 0.2 M CaCl2 (final concentration 11.6 mM), and (3) 20 μl of Innovin (final concentration in reaction 1:10,000; source of tissue factor) were added to the cup. Whole blood collected as described above was added to the reaction (300 up and recordings were allowed to proceed for approximately 30-60 minutes. The data collected was analyzed using the manufacture's software. (Rotem Gamma Software Version 1.1.1).

[2] = biological target: FXa^I16L (Homo sapiens, UniProt P00742, I235L); assay: Inhibition of free FXa^I16L peptidyl substrate (SpecXa) hydrolysis by rivaroxaban; type: biochemical; conditions: free enzyme
FXa^I16L, sequence (P00742 41-179): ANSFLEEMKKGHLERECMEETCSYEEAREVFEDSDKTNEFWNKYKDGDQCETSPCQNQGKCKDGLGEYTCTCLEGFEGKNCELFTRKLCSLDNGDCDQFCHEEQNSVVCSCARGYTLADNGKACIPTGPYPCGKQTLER
FXa^I16L, sequence (P00742 235-488 I235L): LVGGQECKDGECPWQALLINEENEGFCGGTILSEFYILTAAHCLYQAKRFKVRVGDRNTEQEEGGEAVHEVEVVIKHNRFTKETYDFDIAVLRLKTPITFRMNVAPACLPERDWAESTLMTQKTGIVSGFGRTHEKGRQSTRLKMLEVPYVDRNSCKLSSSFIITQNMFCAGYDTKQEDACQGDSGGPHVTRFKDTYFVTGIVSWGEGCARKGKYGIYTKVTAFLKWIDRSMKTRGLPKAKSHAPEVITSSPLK

[3] = tested on: thrombin generation in normal human plasma; assay: Thrombin generation assay (TGA) in normal human plasma, Example 2; type: biochemical; conditions: 500 nM rivaroxaban versus plasma without rivaroxaban
Description: The thrombin generation assay (TGA) was used to assess whether the zymogen-like FXa variants can reverse the effects of direct FXa inhibitors in a more physiologic environment. The TGA measures thrombin production in plasma over time following the initiation of coagulation and was performed as previously described (See Bunce et al., (2011) Blood 117, 290-298, incorporated by reference herein in their entirety). […] Thrombin generation was initiated with 2.0 pM tissue factor/4 uM phospholipid as well as CaCl2 and a thrombin fluorogenic substrate.

[4] = tested on: clotting time of whole blood; assay: ROTEM of whole blood from mice administered rivaroxaban and FXa^I16L in vivo; design: species or system C57BL/6 mice; conditions: 1 mg/kg rivaroxaban via tail vein, buffer only about 2 min
Description: Mice were then prepared to expose the jugular vein and the vena cava. Approximately 10 mill later FXa^I16L (1 or 2 mg/kg) was infused by direct injection into the jugular vein. Five minutes post injection blood was collected via the vena cava into citrate and corn trypsin inhibitor. Collected blood was then analyzed by ROTEM using dilute tissue factor (Innovin, 1:42,000 dilution).

[5] = tested on: thrombin generation in normal human plasma; assay: Thrombin generation assay using calibrated automated thrombography (CAT), Example 4; type: biochemical
Description: Normal human plasma was obtained from George King Biomedical (Overland Park, Kans.). […] Immediately preceding reaction initiation, 10 μL of vehicle or FXa^I16L was added to plasma at final concentrations ranging from 0.03125 nM to 0.5 nM FXa^I16L, given a 120 μL total reaction volume. Reactions were initiated by addition of 20 μL FluCa buffer containing calcium chloride and fluorogenic substrate. Fluorescence of plasma reactions was read at 37° C. at 20 second intervals on a Fluoroskan Ascent fluorometer and compared to those of reference thrombin calibrator reactions to determine thrombin concentrations. The intensity of the fluorescence signal (FU) was continuously monitored at 37° C. using the CAT. Thrombin generation curves (nM thrombin vs. time) were analyzed to extract lag time, peak height, time to peak, and the area under the curve representing the endogenous thrombin potential (ETP) using the Thromboscope software (Thrombinoscope BV version).

[6] = tested on: blood loss following a tail cut; conditions: mouse, in vivo, 50 mg/kg
Description: Thirty minutes later, mice were anesthetized with isoflurane and placed on a heated platform, and the body temperature of the mice was maintained at 37° C. prior to the tail cut. The tails were immersed in 50 mL pre-warmed phosphate buffered saline (PBS) at 37° C. for 2 minutes. A 3 mm tail cut was made and blood was collected into PBS for a 10 minute period. A quantitative assessment of the amount of bleeding was determined by hemoglobin content of the blood collected into PBS. Tubes were centrifuged to collect erythrocytes, resuspended in 5 mL lysis buffer (8.3 g/L NH4Cl, 1.0 g/L KHCO3, and 0.037 g/L EDTA), and the absorbance of the sample was measured at 575 nm. The absorbance values were converted to total blood loss (μL) using a standard curve.
Mice were then anesthetized with isoflurane and placed on a heated platform, and the body temperature of the mice was maintained at 37° C. prior to the tail cut. The tails were immersed in 50 mLs pre-warmed phosphate buffered saline (PBS) at 37° C. for 2 minutes. A 3 mm tail cut was made and blood was collected into PBS for a 10 minute period and the assessment of the amount of bleeding was determined by hemoglobin content as described.

[7] = tested on: clot formation at site of vascular injury; assay: Laser-induced injury of mouse cremaster muscle, intravital microscopy; type: in vivo; conditions: 1 mg/kg rivaroxaban
Description: Using standard techniques, the cremaster muscle of mice was exposed and visualized using intravital microscopy. A vascular injury in the muscle was then induced using a laser. After injury, clot formation was visualized using different fluorescently labeled antibodies that specifically recognize fibrin and platelets. Clotting is indicated by the presence of fluorescent signal from both types of antibodies.

[8] = high doses (supratherapeutic concentrations)
[9] = low doses (therapeutic concentrations)

| SMILES | whole blood clot formation, inhibitor alone [1, 8] | whole blood clot formation, inhibitor alone [1, 9] | reduced affinity to FXa^I16L versus wild-type FXa [2] [fold] | thrombin generation profile of plasma [3] | clot time of whole blood (ROTEM) [4] | thrombin generation in normal human plasma ([5]; in vitro rivaroxaban treatment 5-200 nM) | ETP ([5]; rivaroxaban alone) | lag time ([5]; rivaroxaban alone) | peak thrombin ([5]; rivaroxaban alone) | blood loss following the tail transection [6] | accumulation of platelets at the injury site [7] | signs of fibrin at the injury site [7] |
| --- | --- | --- | --- | --- | --- | --- | --- | --- | --- | --- | --- | --- |
| COc1ccc(-n2nc(C(N)=O)c3c2C(=O)N(c2ccc(N4CCCCC4=O)cc2)CC3)cc1 [apixaban] | almost completely eliminated | partially eliminated |  |  |  |  |  |  |  |  |  |  |
| O=C(NC[C@H]1CN(c2ccc(N3CCOCC3=O)cc2)C(=O)O1)c1ccc(Cl)s1 [rivaroxaban] | almost completely eliminated | partially eliminated | ~15 | substantially reduced | Approximately 10 min | dose dependent inhibition | decrease | increase | decrease | increase | delayed | eliminated |
